Assays:
[1] = Mineral instability (inorganic salts in water); format: physicochemical; conditions: vs other mineral salts
Protocol: Compound 1 Batch 14 (2-3 mg) was dissolved in water for injection at room temperature (WFI) (1 mg/ml) containing different sources of minerals commonly found in tap water (with different accompanying counter ions to be able to distinguish differences between the effects of cation or anion) and samples were taken at different time intervals for HPLC analysis.
Mineral sources used in the form of inorganic salts:
CuCl2, CaCl2), NiSO4, CoCl2, NH4Cl, MnCl2, NaF, NaNO3, CuSO4, Ca(NO3)2, AlSO4, CaCO3, (NH4)2CO3.

[2] = Caco-2 bioavailability in vitro assay (apparent permeability); format: in vitro ADME; conditions: human; Caco-2, apical to basolateral, 0.01 mM, pH 7.4, 1 h, 37° C.
Protocol: (§1) The cell penetrance and potential for oral bioavailability of Compound 1 was tested using a standard caco-2 bioavailability in vitro assay (in brief, confluent Caco-2 cells (L1, A. P., 1992; Grass, G. M; et al., 1992, Volpe, D. A., et al., 2001) in a 24 well Corning Costar Transwell format were provided by In Vitro Technologies Inc. (IVT Inc., Baltimore, Md., USA). The apical chamber contained 0.15 mL Hank's balanced buffer solution (HBBS) pH 7.4, 1% DMSO, 0.1 mM Lucifer Yellow. The basal chamber contained 0.6 mL HBBS pH 7.4, 1% DMSO. Controls and tests were incubated at 37° C. in a humidified incubator, shaken at 130 rpm for 1 h. Lucifer Yellow permeates via the paracellular (between the tight junctions) route only, a high Apparent Permeability (Papp) for Lucifer Yellow indicates cellular damage during assay and all such wells were rejected. Propranolol (good passive permeation with no known transporter effects) & acebutalol (poor passive permeation attenuated by active efflux by P-glycoprotein) were used as reference compounds. Compounds were tested in a uni- and bi-directional format by applying compound to the apical or basal chamber (at 0.01 mM). Compounds in the apical or basal chambers were analysed by HPLC-MS. Results were expressed as Apparent Permeability, Papp, (nm/s), in comparison to other succinate prodrugs, including a number from WO2015/155231.

[3] = system: Caco-2 cells; test: as above; format: in vitro ADME; conditions: Caco-2
Protocol: as §1

[4] = Carbonate concentration dependence; format: physicochemical; conditions: HPLC water, 1 mg/ml
Protocol: Compound 1 Batch 14 (2-3 mg) was dissolved in HPLC grade water (1 mg/ml) containing different concentrations of calcium carbonate and samples were taken at different time intervals for HPLC analysis.

[5] = Carbonate instability (calcium and carbonate sources); format: physicochemical; conditions: for Percentage of Compound 1 remaining compared to T = 0: 1 mg/ml
Protocol: Compound 1 Batch 14 (2-3 mg) was dissolved in HPLC grade water at room temperature (1 mg/ml) containing different sources of calcium and carbonate ions (two concentrations for each source, with the pH recorded) and samples were taken at different time intervals for HPLC analysis.
Calcium and carbonate sources used in the form of inorganic salts: […]

degradation in aqueous solution with carbonate ions [1]: degrades more rapidly | Papp A→B at 1 h, 0.01 mM [2]: 0.412 ×10⁻⁶ cm/s | Apical to Basolateral transfer, rank among prodrugs tested [3]: highest | Percentage of Compound 1 remaining compared to T = 0 ([4]; CaCO3 (0 mM), batch 14, day 0): 100% | Percentage of Compound 1 remaining compared to T = 0 ([4]; CaCO3 (0 mM), batch 14, day 7): 98.7% | Percentage of Compound 1 remaining compared to T = 0 ([4]; CaCO3 (0 mM), batch 14, day 14): 98.6% | Percentage of Compound 1 remaining compared to T = 0 ([4]; CaCO3 (0.425 mM), batch 14, day 0): 100% | Percentage of Compound 1 remaining compared to T = 0 ([4]; CaCO3 (0.425 mM), batch 14, day 7): 98.1% | Percentage of Compound 1 remaining compared to T = 0 ([4]; CaCO3 (0.425 mM), batch 14, day 14): 98.4% | Percentage of Compound 1 remaining compared to T = 0 ([4]; CaCO3 (0.85 mM), batch 14, day 0): 100% | Percentage of Compound 1 remaining compared to T = 0 ([4]; CaCO3 (0.85 mM), batch 14, day 7): 97.8% | Percentage of Compound 1 remaining compared to T = 0 ([4]; CaCO3 (0.85 mM), batch 14, day 14): 97.1% | Percentage of Compound 1 remaining compared to T = 0 ([4]; CaCO3 (1.7 mM), batch 14, day 0): 100% | Percentage of Compound 1 remaining compared to T = 0 ([4]; CaCO3 (1.7 mM), batch 14, day 7): 93.8% | Percentage of Compound 1 remaining compared to T = 0 ([4]; CaCO3 (1.7 mM), batch 14, day 14): 90.8% | Percentage of Compound 1 remaining compared to T = 0 ([4]; CaCO3 (3.4 mM), batch 14, day 0): 100% | Percentage of Compound 1 remaining compared to T = 0 ([4]; CaCO3 (3.4 mM), batch 14, day 7): 83.4% | Percentage of Compound 1 remaining compared to T = 0 ([4]; CaCO3 (3.4 mM), batch 14, day 14): 71.4% | Percentage of Compound 1 remaining compared to T = 0 ([5]; (NH4)2CO3 (3.4 mM, pH 8.9), batch 14, day 0): 100% | Percentage of Compound 1 remaining compared to T = 0 ([5]; (NH4)2CO3 (3.4 mM, pH 8.9), batch 14, day 3): 99.6% | Percentage of Compound 1 remaining compared to T = 0 ([5]; (NH4)2CO3 (3.4 mM, pH 8.9), batch 14, day 17): 85.5% | Percentage of Compound 1 remaining compared to T = 0 ([5]; (NH4)2CO3 (3.4 mM, pH 9.3), batch 14, day 0): 100% | Percentage of Compound 1 remaining compared to T = 0 ([5]; (NH4)2CO3 (3.4 mM, pH 9.3), batch 14, day 3): 98.9% | Percentage of Compound 1 remaining compared to T = 0 ([5]; (NH4)2CO3 (3.4 mM, pH 9.3), batch 14, day 17): 57.5% | Percentage of Compound 1 remaining compared to T = 0 ([5]; Ca(NO3)2 (0.34 mM, pH 7.3), batch 14, day 0): 100% | Percentage of Compound 1 remaining compared to T = 0 ([5]; Ca(NO3)2 (0.34 mM, pH 7.3), batch 14, day 3): 101% | Percentage of Compound 1 remaining compared to T = 0 ([5]; Ca(NO3)2 (0.34 mM, pH 7.3), batch 14, day 17): 97.5% | Percentage of Compound 1 remaining compared to T = 0 ([5]; Ca(NO3)2 (3.4 mM, pH 7.2), batch 14, day 0): 100% | Percentage of Compound 1 remaining compared to T = 0 ([5]; Ca(NO3)2 (3.4 mM, pH 7.2), batch 14, day 3): 100% | Percentage of Compound 1 remaining compared to T = 0 ([5]; Ca(NO3)2 (3.4 mM, pH 7.2), batch 14, day 17): 97.1% | Percentage of Compound 1 remaining compared to T = 0 ([5]; CaCO3 (0.34 mM, pH 7.6), batch 14, day 0): 100% | Percentage of Compound 1 remaining compared to T = 0 ([5]; CaCO3 (0.34 mM, pH 7.6), batch 14, day 3): 93.8% | Percentage of Compound 1 remaining compared to T = 0 ([5]; CaCO3 (0.34 mM, pH 7.6), batch 14, day 17): 50.4% | Percentage of Compound 1 remaining compared to T = 0 ([5]; CaCO3 (3.4 mM, pH 7.6), batch 14, day 0): 100% | Percentage of Compound 1 remaining compared to T = 0 ([5]; CaCO3 (3.4 mM, pH 7.6), batch 14, day 3): 93.6% | Percentage of Compound 1 remaining compared to T = 0 ([5]; CaCO3 (3.4 mM, pH 7.6), batch 14, day 17): 49.5% | Percentage of Compound 1 remaining compared to T = 0 ([5]; CaCl2 (0.34 mM, pH 7.4), batch 14, day 0): 100% | Percentage of Compound 1 remaining compared to T = 0 ([5]; CaCl2 (0.34 mM, pH 7.4), batch 14, day 3): 98.4% | Percentage of Compound 1 remaining compared to T = 0 ([5]; CaCl2 (0.34 mM, pH 7.4), batch 14, day 17): 95.1% | Percentage of Compound 1 remaining compared to T = 0 ([5]; CaCl2 (3.4 mM, pH 7.5), batch 14, day 0): 100% | Percentage of Compound 1 remaining compared to T = 0 ([5]; CaCl2 (3.4 mM, pH 7.5), batch 14, day 3): 101% | Percentage of Compound 1 remaining compared to T = 0 ([5]; CaCl2 (3.4 mM, pH 7.5), batch 14, day 17): 96.7% | Percentage of Compound 1 remaining compared to T = 0 ([5]; HPLC water (control, pH 6.5), batch 14, day 0): 100% | Percentage of Compound 1 remaining compared to T = 0 ([5]; HPLC water (control, pH 6.5), batch 14, day 3): 94.3% | Percentage of Compound 1 remaining compared to T = 0 ([5]; HPLC water (control, pH 6.5), batch 14, day 17): 91.4% | degradation in aqueous solution with carbonate ions ([5]; vs calcium chloride / nitrate and control): degrades more rapidly
Compound: COC(=O)CCC(=O)SCCNC(C)=O [Compound 1, Methyl 3-[(2-acetylaminoethylthio)carbonyl]propionate]

— patent US11565998B2, “Succinate prodrug, compositions containing the succinate prodrug and uses thereof” (ABLIVA AB, priority 2019, dated 2023)
